Measurements as given in US7118745B1, “Engineering antibodies that bind irreversibly” (The Regents of the University of California, priority 1999, dated 2006).

Assays:
native antibody CHA255 = test: Control incubation of chelates with native antibody CHA255 (covalent labeling); assay type: biochemical, mouse; conditions: indium chelates incubated with native antibody; BABE: after several hours
Protocol: As a control, the same chelates were incubated with native antibody CHA255, to see if they would covalently label it.

S95C Fab light chain = test: Covalent cross-linking of 111In-labeled chelates to S95C Fab in culture medium (SDS-PAGE, phosphorimage); assay type: biochemical, mouse/human chimeric; conditions: 111In-labeled chelate, culture medium containing S95C mutant, 30 minutes
Protocol: FIG. 18 is a phosphorimage of a 15% SDS-PAGE gel of samples incubated 30 minutes at 37° C. Chelates (CABE, CpABE, AABE, ABE) are in lanes 1–4, along with culture medium containing the S95C mutant. The (radiolabeled) band (at 26 kDa) in lane 1 is the crosslink between CABE (our positive control) and S95C Fab light chain. […] No crosslinks are observed with the non-nucleophilic native Fab, nor with the N96C mutant.
100 μl of complete culture medium from S2 cultures expressing each of the CHA255 Chimeric Fabs was mixed with 5 μl of 100 mM DOTA to sequester Cu^2+ from induction of expression. Each chelate was loaded with ^111In as previously described with a specific activity of 200 μCi. Complete metallation was analyzed by TLC as described previously. Specifically, 1 μl of chelate was added to 2.8 μl of 0.1 M citrate buffer (pH 5.5) to which was added 1.2 μl of carrier free ^111In (Nordion) ([…]) and the chelate was analyzed by TLC. 4 μl of loaded chelate was added to the 105 μl of Fab-DOTA in medium. This solution was incubated for 30 min. at room temperature. The reaction was stopped by separation of excess chelate by gel filtration spin chromatography (Penefsky column). 20 μl of eluant was added to 5 μl of sample application buffer containing β-mercaptoethanol (5×SDS PAGE SAB), boiled and reduced for 10 min. at 95° C. This was loaded onto a 1020% SDS-Page gel and electrophoriesed for 1 hr at 200V. The gel was fixed and dried via standard protocols and then exposed to a phosphorimager plate for 12 h. The plate was visualized with a Storm 640 phosphorimager (Molecular Dymanics).
In-labeled electrophilic chelates were incubated in Fab-containing culture medium to investigate whether either of the mutant antibodies would bind irreversibly to its target. Serum-containing culture medium was used as a representation of typical biological media. […] We incubated ^111In-labeled chelates bearing electrophilic acrylamido, chloroproprionamido, or chloroacetamido groups at physiological pH and temperature with raw tissue culture medium from the cells expressing the recombinant antibodies. As a control, an ^111In-labeled chelate bearing the non-electrophilic amino group was also included. At various times after addition of the radioactive chelates, we removed samples from the incubation and applied them to a gel filtration spin column to remove excess radiolabeled chelate.
The samples were analyzed by SDS-PAGE and visualized by phosphorimager. Separation under reducing and denaturing conditions on SDS-PAGE will separate the light chain from the heavy chain of each Fab, functionally destroying the antibody-binding pocket.

human serum albumin = human serum albumin (Homo sapiens, UniProt P02768); test: Stability of 111In-labeled bifunctional chelates incubated with human serum albumin (TLC); assay type: in vitro ADME; conditions: after 20 hrs; 20 mM Hepes, pH 7.4, 37° C.; 1 mM free sulfhydryl as human serum albumin
Protocol: The electrophilic chelates AABE, CABE, BABE were labeled with indium-111 and incubated in a Hepes buffered solution at physiological pH and temperature (20 mM Hepes, pH 7.4, 37° C.) containing 1 mM free sulfhydryl groups in the form of human serum albumin-approximating the concentration of thiols in plasma.
The reactive chelates 5–7 and aminobenzyl-EDTA (“ABE”) were labeled with ^111In and analyzed by TLC (50:50 Methanol/10% NaOAc pH8.2) to show complete chelation. To 0.5 mL of human serum albumin solution was added 2 μl of one of the labeled chelates. […] The vials were mixed by manual agitation, and 2 μl was removed and analyzed by TLC.
The fraction unreacted is plotted versus incubation time in FIG. 6. After 20 hrs, >95% of the In-AABE and In-CABE molecules were unreacted, while most of the In-BABE was attached to albumin. This confirmed the expectation that AABE and CABE are stable, and are good candidates for pretargeting. We infer that these chelates should be unreactive in blood for the length of time needed for pretargeting (40 min–4 hrs); if not, many other choices are available.

Sequence of human serum albumin (P02768 25-609): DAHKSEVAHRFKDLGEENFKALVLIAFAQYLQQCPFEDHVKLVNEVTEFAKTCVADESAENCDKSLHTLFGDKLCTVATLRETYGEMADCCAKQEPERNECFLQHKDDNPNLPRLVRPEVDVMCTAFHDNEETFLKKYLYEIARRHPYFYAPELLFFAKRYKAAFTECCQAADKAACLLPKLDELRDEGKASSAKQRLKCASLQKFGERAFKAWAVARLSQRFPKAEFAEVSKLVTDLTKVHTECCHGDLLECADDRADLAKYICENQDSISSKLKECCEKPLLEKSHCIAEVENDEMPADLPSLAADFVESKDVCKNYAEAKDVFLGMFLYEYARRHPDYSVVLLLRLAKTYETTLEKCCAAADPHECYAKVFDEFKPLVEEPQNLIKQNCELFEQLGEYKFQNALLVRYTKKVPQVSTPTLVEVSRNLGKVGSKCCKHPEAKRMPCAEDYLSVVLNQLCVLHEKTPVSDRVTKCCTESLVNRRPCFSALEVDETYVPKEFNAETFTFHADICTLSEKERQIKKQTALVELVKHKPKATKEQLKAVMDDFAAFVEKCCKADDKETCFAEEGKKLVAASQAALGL

| SMILES | covalent attachment to native CHA255 (native antibody CHA255) | crosslink of chelate with S95C Fab light chain (radiolabeled 26 kDa band) (S95C Fab light chain) | crosslink of chelate with S95C Fab light chain (radiolabeled 26 kDa band) (S95C Fab light chain; listed as In-AABE) | chelate attached to albumin (human serum albumin) | crosslink of chelate with S95C Fab light chain (radiolabeled 26 kDa band) (S95C Fab light chain; listed as In-CABE) |
| --- | --- | --- | --- | --- | --- |
| C=CC(=O)Nc1ccc(CC(CN(CC(=O)O)CC(=O)O)N(CC(=O)O)CC(=O)O)cc1 (stereo not shown) [AABE, Acrylamidobenzyl-EDTA] | did not covalently attach | 26 kDa band | reacted equally well |  |  |
| Nc1ccc(CC(CN(CC(=O)O)CC(=O)O)N(CC(=O)O)CC(=O)O)cc1 (stereo not shown) [ABE, aminobenzyl-EDTA, reference compound] | did not covalently attach | does not show crosslinks |  |  |  |
| O=C(O)CN(CC(=O)O)CC(Cc1ccc(NC(=O)CBr)cc1)N(CC(=O)O)CC(=O)O (stereo not shown) [BABE, bromoacetylamidobenzyl] | did react to some degree |  |  | most |  |
| O=C(O)CN(CC(=O)O)CC(Cc1ccc(NC(=O)CCl)cc1)N(CC(=O)O)CC(=O)O (stereo not shown) [CABE, chloroacetylamidobenzyl] | did not covalently attach | crosslink |  |  | reacted equally well |
